For 21 compounds, IC90, melting point and Ki results are on record in patent USRE37781E1, “Substituted cyclic carbonyls and derivatives thereof useful as retroviral protease inhibitors” (DuPont Pharmaceuticals Company, priority 1991, dated 2002).

≈ marks a conversion by molar mass, not a printed value.

One data set concerns HIV-1 (RF) in MT-2 cells. The data set is described as follows: microbe, parasite or virus in culture. As to conditions: Human immunodeficiency virus 1, MT2, 48 h, Table 2d; HIV RNA assay; read-out: IC90. The format is cell-based. A digest of the protocol: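 HIV-1 laboratory strains (RF, MN, IIIB) grown in H9 cells in RPMI 1640 with 5% FCS; infections in MT-2 cells. Viral RNA quantified by hybridization with biotinylated gag/pol capture probes on streptavidin plates and alkaline phosphatase-conjugated reporter probes; BH10 gag-pol in vitro transcripts serve as RNA standards.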
As for `CNCc1cccc(CN2C(=O)N(Cc3cccc(CNC)c3)C(Cc3ccccc3)C(O)C(O)C2Cc2ccccc2)c1` (stereo not drawn) [Example 15XC], the IC90 is less than 10 µg/mL.
Same read-out and setting: the value for `O=C1N(Cc2ccc(CO)cc2)C(Cc2ccccc2)C(O)C(O)C(Cc2ccccc2)N1Cc1cccnc1` (stereo not drawn) [Example 15XE] was less than 10 µg/mL.
Still for that read-out and setting: the value for `CCN(CC)Cc1cccc(CN2C(=O)N(Cc3cccc(CN(CC)CC)c3)C(Cc3ccccc3)C(O)C(O)C2Cc2ccccc2)c1` (stereo not drawn) [Example 15XF] was less than 10 µg/mL; that for `O=C1N(Cc2cccc(Cn3ccnc3)c2)C(Cc2ccccc2)C(O)C(O)C(Cc2ccccc2)N1Cc1cccc(Cn2ccnc2)c1` (stereo not drawn) [Example 15XG] was less than 10 µg/mL.
For `CC(C)(C)C(=O)c1cccc(CN2C(=O)N(Cc3cccc(C(=O)C(C)(C)C)c3)C(Cc3ccccc3)C(O)C(O)C2Cc2ccccc2)c1` (stereo not drawn) [Example 15XH], the concentration for an effect of 90% (IC90) is less than 10 µg/mL.
Regarding `O=C1N(Cc2cccc(C(O)C(F)(F)F)c2)C(Cc2ccccc2)C(O)C(O)C(Cc2ccccc2)N1Cc1cccc(C(O)C(F)(F)F)c1` (stereo not drawn) [Example 15XI], the IC90 was less than 10 µg/mL.
For `O=C(c1cccc(CN2C(=O)N(Cc3cccc(C(=O)c4ncc[nH]4)c3)C(Cc3ccccc3)C(O)C(O)C2Cc2ccccc2)c1)c1ncc[nH]1` (stereo not drawn) [Example 15XJ], the IC90 is less than 10 µg/mL.
Still for that read-out and setting: the value for `O=C1N(Cc2cccc(C#CCO)c2)C(Cc2ccccc2)C(O)C(O)C(Cc2ccccc2)N1Cc1cccc(C#CCO)c1` (stereo not drawn) [Example 15XL] was less than 10 µg/mL; that for `O=C1N(Cc2cccc(C(=O)C(F)(F)F)c2)C(Cc2ccccc2)C(O)C(O)C(Cc2ccccc2)N1Cc1cccc(C(=O)C(F)(F)F)c1` (stereo not drawn) [Example 15XM] was less than 10 µg/mL.
In the case of `CCC(=O)c1cccc(CN2C(=O)N(Cc3cccc(C(=O)CC)c3)C(Cc3ccccc3)C(O)C(O)C2Cc2ccccc2)c1` (stereo not drawn) [Example 15XN], the IC90 was less than 10 µg/mL.
In the case of `CCC(=NO)c1cccc(CN2C(=O)N(Cc3cccc(C(CC)=NO)c3)C(Cc3ccccc3)C(O)C(O)C2Cc2ccccc2)c1` (stereo not drawn) [Example 15XP], the IC90 is less than 10 µg/mL.
As to `O=C1N(Cc2cccc(C(=NO)C(F)(F)F)c2)C(Cc2ccccc2)C(O)C(O)C(Cc2ccccc2)N1Cc1cccc(C(=NO)C(F)(F)F)c1` (stereo not drawn) [Example 15XR], the IC90 was less than 10 µg/mL.
For the compound `Cc1ccc(S(=O)(=O)NN=Cc2cccc(CN3C(=O)N(Cc4cccc(C=NNS(=O)(=O)c5ccc(C)cc5)c4)C(Cc4ccccc4)C(O)C(O)C3Cc3ccccc3)c2)cc1` (stereo not drawn) [Example 15YF], the IC90 was less than 10 µg/mL.
On the same count and under the same terms, next, `C[Si](C)(C)CCOCn1ccnc1-c1cccc(CN2C(=O)N(Cc3cccc(-c4ncc[nH]4)c3)C(Cc3ccccc3)C(O)C(O)C2Cc2ccccc2)c1` (stereo not drawn) [Example 15YK]: less than 10 µg/mL.
On the same count and under the same terms, the value for `O=C(c1cccc(CN2C(=O)N(Cc3cccc(C(=O)c4cc[nH]n4)c3)C(Cc3ccccc3)C(O)C(O)C2Cc2ccccc2)c1)c1cc[nH]n1` (stereo not drawn) [Example 15YN] was less than 10 µg/mL.

The data set is the same for the next values; noted with them: Human immunodeficiency virus 1, MT2, HIV RNA assay, HIV-1 infected MT-2 cells; class symbols; read-out: IC90.
`O=C1N(Cc2ccccn2)C(Cc2ccccc2)C(O)C(O)C(Cc2ccccc2)N1Cc1ccccn1` (stereo not drawn) [Example 3M]: the concentration for an effect of 90% (IC90) lay within 10 to 100 µg/mL (≈ 19.7 to 197 µM).

The data set is the same for the next values; noted with them: Human immunodeficiency virus 1, MT2, Table 2i; read-out: IC90.
Turning to `Nc1ccc(CC2C(O)C(O)C(Cc3ccccc3N)N(CC3CC3)C(=O)N2CC2CC2)cc1` (stereo not drawn) [Example 20E], the IC90 is less than 10 µg/mL.
`Nc1ccc(CC2C(O)C(O)C(Cc3ccc(N)cc3)N(CC3CC3)C(=O)N2CC2CC2)cc1` (stereo not drawn) [Example 20F]: the IC90 is less than 10 µg/mL.

The same data set, now with this note: Human immunodeficiency virus 1, MT2, Table 2m; read-out: IC90.
For the compound `O=S1(=O)N(Cc2cccc(OCc3ccccc3)c2)C(Cc2ccccc2)C(O)C(O)C(Cc2ccccc2)N1Cc1cccc(OCc2ccccc2)c1` (stereo not drawn) [Example 23C], the IC90 lay in the range of 10 to 100 µg/mL (≈ 13.2 to 132 µM).

The same data set, now with this note: Table 2i.
Turning to `COc1cccc(CC2C(O)C(O)C(Cc3cccc(OC)c3)N(Cc3ccccc3)C(=O)N2Cc2ccccc2)c1` (stereo not drawn) [Example 20W], the IC90 entry is listed as “+++ (+++=<10 μg/mL)”.

Staying with this data set, now noted: Table 2m.
Consider `O=S1(=O)N(Cc2cccc(O)c2)C(Cc2ccccc2)C(O)C(O)C(Cc2ccccc2)N1Cc1cccc(O)c1` (stereo not drawn) [Example 23D], for which the 90% effect concentration (IC90) result is recorded as “+++ (+++=<10 μg/mL)”.

Test system in the next data set: not given
Assay: not given
Details: not given
With `O=C1N(Cc2ccccn2)C(Cc2ccccc2)C(O)C(O)C(Cc2ccccc2)N1Cc1ccccn1` (stereo not drawn) [Example 3M], the melting point was in the range of 151 to 153 °C.

A further data set deals with single-chain tethered dimer of HIV protease (Human immunodeficiency virus 1, UniProt P04585). Description: biochemical. The format is biochemical. The arrangement: fused on or other part: A second copy of the same protease unit is joined to the first by a short peptide tether, giving one polypeptide. As to conditions: Table 2i; read-out: HPLC Ki.
For the compound `COc1cccc(CC2C(O)C(O)C(Cc3cccc(OC)c3)N(Cc3ccccc3)C(=O)N2Cc2ccccc2)c1` (stereo not drawn) [Example 20W], the Ki is less than 10 nM.

The same data set, now with this note: Table 2m; read-out: HPLC Ki.
For `O=S1(=O)N(Cc2cccc(O)c2)C(Cc2ccccc2)C(O)C(O)C(Cc2ccccc2)N1Cc1cccc(O)c1` (stereo not drawn) [Example 23D], the Ki was less than 10 nM.

The same data set, now with this note: read-out: HPLC K1; Table 2d; HIV protease inhibition, HPLC method.
For the compound `CNCc1cccc(CN2C(=O)N(Cc3cccc(CNC)c3)C(Cc3ccccc3)C(O)C(O)C2Cc2ccccc2)c1` (stereo not drawn) [Example 15XC], the Ki is 10 to 1000 nM.
With `O=C1N(Cc2ccc(CO)cc2)C(Cc2ccccc2)C(O)C(O)C(Cc2ccccc2)N1Cc1cccnc1` (stereo not drawn) [Example 15XE], the Ki was less than 10 nM.
The same measure, in the same setting: the value for `CCN(CC)Cc1cccc(CN2C(=O)N(Cc3cccc(CN(CC)CC)c3)C(Cc3ccccc3)C(O)C(O)C2Cc2ccccc2)c1` (stereo not drawn) [Example 15XF] was 10 to 1000 nM; that for `O=C1N(Cc2cccc(Cn3ccnc3)c2)C(Cc2ccccc2)C(O)C(O)C(Cc2ccccc2)N1Cc1cccc(Cn2ccnc2)c1` (stereo not drawn) [Example 15XG] was less than 10 nM; that for `CC(C)(C)C(=O)c1cccc(CN2C(=O)N(Cc3cccc(C(=O)C(C)(C)C)c3)C(Cc3ccccc3)C(O)C(O)C2Cc2ccccc2)c1` (stereo not drawn) [Example 15XH] was less than 10 nM.
`O=C1N(Cc2cccc(C(O)C(F)(F)F)c2)C(Cc2ccccc2)C(O)C(O)C(Cc2ccccc2)N1Cc1cccc(C(O)C(F)(F)F)c1` (stereo not drawn) [Example 15XI]: the Ki is less than 10 nM.
On the same count and under the same terms, the value for `O=C(c1cccc(CN2C(=O)N(Cc3cccc(C(=O)c4ncc[nH]4)c3)C(Cc3ccccc3)C(O)C(O)C2Cc2ccccc2)c1)c1ncc[nH]1` (stereo not drawn) [Example 15XJ] was less than 10 nM.
Take `O=C1N(Cc2cccc(C#CCO)c2)C(Cc2ccccc2)C(O)C(O)C(Cc2ccccc2)N1Cc1cccc(C#CCO)c1` (stereo not drawn) [Example 15XL]: the Ki was less than 10 nM.
The same measure, in the same setting: the value for `O=C1N(Cc2cccc(C(=O)C(F)(F)F)c2)C(Cc2ccccc2)C(O)C(O)C(Cc2ccccc2)N1Cc1cccc(C(=O)C(F)(F)F)c1` (stereo not drawn) [Example 15XM] was less than 10 nM; that for `CCC(=O)c1cccc(CN2C(=O)N(Cc3cccc(C(=O)CC)c3)C(Cc3ccccc3)C(O)C(O)C2Cc2ccccc2)c1` (stereo not drawn) [Example 15XN] was less than 10 nM; that for `CCC(=NO)c1cccc(CN2C(=O)N(Cc3cccc(C(CC)=NO)c3)C(Cc3ccccc3)C(O)C(O)C2Cc2ccccc2)c1` (stereo not drawn) [Example 15XP] was less than 10 nM.
Consider `O=C1N(Cc2cccc(C(=NO)C(F)(F)F)c2)C(Cc2ccccc2)C(O)C(O)C(Cc2ccccc2)N1Cc1cccc(C(=NO)C(F)(F)F)c1` (stereo not drawn) [Example 15XR], for which the Ki is less than 10 nM.
On the same count and under the same terms, the value for `Cc1ccc(S(=O)(=O)NN=Cc2cccc(CN3C(=O)N(Cc4cccc(C=NNS(=O)(=O)c5ccc(C)cc5)c4)C(Cc4ccccc4)C(O)C(O)C3Cc3ccccc3)c2)cc1` (stereo not drawn) [Example 15YF] was 10 to 1000 nM; that for `C[Si](C)(C)CCOCn1ccnc1-c1cccc(CN2C(=O)N(Cc3cccc(-c4ncc[nH]4)c3)C(Cc3ccccc3)C(O)C(O)C2Cc2ccccc2)c1` (stereo not drawn) [Example 15YK] was 10 to 1000 nM.
For `O=C(c1cccc(CN2C(=O)N(Cc3cccc(C(=O)c4cc[nH]n4)c3)C(Cc3ccccc3)C(O)C(O)C2Cc2ccccc2)c1)c1cc[nH]n1` (stereo not drawn) [Example 15YN], the Ki was less than 10 nM.

The data set is the same for the next values; noted with them: read-out: HPLC Ki; Table 2i.
For `Nc1ccc(CC2C(O)C(O)C(Cc3ccccc3N)N(CC3CC3)C(=O)N2CC2CC2)cc1` (stereo not drawn) [Example 20E], the Ki was less than 10 nM.
On the same count and under the same terms, the value for `Nc1ccc(CC2C(O)C(O)C(Cc3ccc(N)cc3)N(CC3CC3)C(=O)N2CC2CC2)cc1` (stereo not drawn) [Example 20F] was 10 to 1000 nM.

The data set is the same for the next values; noted with them: read-out: HPLC Ki; Table 2m.
With `O=S1(=O)N(Cc2cccc(OCc3ccccc3)c2)C(Cc2ccccc2)C(O)C(O)C(Cc2ccccc2)N1Cc1cccc(OCc2ccccc2)c1` (stereo not drawn) [Example 23C], the Ki was 10 to 1000 nM.

In general, IC90 refers to the concentration at which the effect reaches the 90% level. A word on the melting point: it is the temperature of the solid-liquid transition.
